Measured values reported in patent publication US20100087498A1, “USE OF BIOTIN TO PREVENT PHOTOAGING” (priority 2007, published 2010).

Test system: MMP-1 expression in primary human dermal fibroblasts
Experiment: Inhibition of UV-A induced expression of matrix metalloproteinase-1 (MMP-1 RNA, real time PCR) in skin fibroblasts
Format: cell-based
Settings: 30 J/cm^2 UVA1; for MMP-1 expression relative to UV-A only treated cells / reduction of UV-A induced MMP-1 expression: primary human dermal fibroblasts; for MMP-1 expression relative to UV-A only treated cells: 48 h preincubation, 24 hrs after irradiation; for reduction of UV-A induced MMP-1 expression: concentrations as in Table 1
Protocol: Primary human dermal fibroblasts were cultured in EMEM without glutamine (Earle's Minimum Essential Medium), supplemented with antibiotics/antimycotics, 2 mM L-glutamine and 7.5% fetal calf serum at 37° C./5% CO2 and grown to 100% confluency. Forty-eight hours prior to irradiation the cells were preincubated with the desired substances in EMEM (with AB/AM, L-Glutamine and 2% FCS. After 24 hours the medium was replaced by fresh medium with substances (freshly prepared). For irradiation, the medium was removed and after 6 wash steps with phosphate-buffered saline (PBS) replaced by phosphate-buffered saline (PBS). The plate was then exposed to 30 J/cm^2 UVA1. The UVA1 output was approximately 150 mW/cm^2. After irradiation the phosphate-buffered saline in the cell microplate was exchanged against culture medium (+7.5% FCS) with the substances (fresh prepared) and the cells were incubated in a CO2-incubator for further 24 hrs (MMP-1 determination). The culture medium was removed, the cells were rinsed with phosphate-buffered saline and the whole plate was frozen in liquid nitrogen. Total RNA was isolated using RNeasy Total RNA Kits (Qiagen, Hilden; Germany). The RNA concentration was determined via photometric measurement at 260/280. Aliquots of total RNA (75 ng) were applied for cDNA-Synthesis using Superscript™III First-Strand synthesis system for RT-PCR. Two samples for each compound were analyzed. The PCR reactions were carried out on an Opticon 1 (MJ Research, Waltham, Mass., USA) using SYBR Green® PCR Master Mix (Applied Biosystems, Darmstadt, Germany). For comparison of relative expression in real time PCR control cells and treated cells the 2 ^(-delta delta C(T)) method was used.

[1] = EGCG 9 μmol/L, Biotin 0.03 μmol/L

Compound	% inhibition (inhibition of UV-A induced MMP-1 expression, EGCG 9 μmol/L, Biotin 0.03 μmol/L) [%]	MMP-1 expression relative to UV-A only treated cells [1] [%]	reduction of UV-A induced MMP-1 expression [%]	inhibition at 0.03 µM (Homo sapiens, Fibroblast, light or radiation study, inhibition of UV-A induced MMP-1 expression, EGCG 9 μmol/L, Biotin 0.03 μmol/L) [%]
(-)-epigallocatechin gallate [EGCG]	13	87	13	–
O=C(O)CCCC[C@@H]1SC[C@@H]2NC(=O)N[C@@H]21 [Biotin]	–	35	66	66
